Assay: mn = molality of the nth substance listed, in mol/kg
Conditions: for surface tension liquid-gas: Ring tensiometer; for electrical conductivity: 100 kPa, Liquid, Alternating current cell with electrodes

CCCCCCCC[NH+](CCO)CC(C)O.[Cl-] (centres undefined) + O
Conditions | electrical conductivity [S/m] | surface tension liquid-gas [mN/m]
293.15 K, m1 = 1.867e-05 | – | 62.99
293.15 K, m1 = 1.87e-05 | 0.00057 | –
293.15 K, m1 = 3.733e-05 | – | 56.87
293.15 K, m1 = 3.99e-05 | 0.000652 | –
293.15 K, m1 = 6.12e-05 | 0.000733 | –
293.15 K, m1 = 8.25e-05 | 0.000815 | –
293.15 K, m1 = 9.334e-05 | – | 47.51
293.15 K, m1 = 0.0001038 | 0.000896 | –
293.15 K, m1 = 0.0001251 | 0.000978 | –
293.15 K, m1 = 0.0001464 | 0.00106 | –
293.15 K, m1 = 0.0001676 | 0.00114 | –
293.15 K, m1 = 0.0001867 | – | 40.52
293.15 K, m1 = 0.0001889 | 0.00122 | –
293.15 K, m1 = 0.0002102 | 0.0013 | –
293.15 K, m1 = 0.0002315 | 0.00138 | –
293.15 K, m1 = 0.0002528 | 0.00147 | –
293.15 K, m1 = 0.000274 | 0.00155 | –
293.15 K, m1 = 0.00028 | – | 36.28
293.15 K, m1 = 0.0002953 | 0.00163 | –
293.15 K, m1 = 0.0003166 | 0.00171 | –
293.15 K, m1 = 0.0003379 | 0.00179 | –
293.15 K, m1 = 0.0003592 | 0.00187 | –
293.15 K, m1 = 0.0003734 | – | 33.31
293.15 K, m1 = 0.0003805 | 0.00196 | –
293.15 K, m1 = 0.0004017 | 0.00204 | –
293.15 K, m1 = 0.000423 | 0.00212 | –
293.15 K, m1 = 0.0004436 | – | 31.33
293.15 K, m1 = 0.0004443 | 0.0022 | –
293.15 K, m1 = 0.0004687 | 0.00226 | –
293.15 K, m1 = 0.0004932 | 0.00233 | –
293.15 K, m1 = 0.0005177 | 0.00239 | –
293.15 K, m1 = 0.0005421 | 0.00246 | –
293.15 K, m1 = 0.0005666 | 0.00252 | –
293.15 K, m1 = 0.000591 | 0.00259 | –
293.15 K, m1 = 0.0006155 | 0.00266 | –
293.15 K, m1 = 0.0006399 | 0.00272 | –
293.15 K, m1 = 0.0006644 | 0.00279 | –
293.15 K, m1 = 0.0006888 | 0.00285 | –
293.15 K, m1 = 0.0007133 | 0.00292 | –
293.15 K, m1 = 0.0007378 | 0.00298 | –
293.15 K, m1 = 0.0007622 | 0.00305 | –
293.15 K, m1 = 0.0007867 | 0.00312 | –
293.15 K, m1 = 0.0008111 | 0.00318 | –
293.15 K, m1 = 0.0008356 | 0.00325 | –
293.15 K, m1 = 0.00086 | 0.00331 | –
293.15 K, m1 = 0.0008845 | 0.00338 | –
293.15 K, m1 = 0.0009089 | 0.00345 | –
293.15 K, m1 = 0.0009334 | 0.00352 | 30.74
293.15 K, m1 = 0.001867 | – | 30.15
293.15 K, m1 = 0.0028 | – | 29.89
293.15 K, m1 = 0.003733 | – | 30
298.15 K, m1 = 1.867e-05 | – | 58.01
298.15 K, m1 = 1.87e-05 | 0.00071 | –
298.15 K, m1 = 3.733e-05 | – | 52.03
298.15 K, m1 = 3.79e-05 | 0.000793 | –
298.15 K, m1 = 5.71e-05 | 0.000877 | –
298.15 K, m1 = 7.64e-05 | 0.00096 | –
298.15 K, m1 = 9.334e-05 | – | 43.52
298.15 K, m1 = 9.56e-05 | 0.00104 | –
298.15 K, m1 = 0.0001148 | 0.00113 | –
298.15 K, m1 = 0.000134 | 0.00121 | –
298.15 K, m1 = 0.0001533 | 0.00129 | –
298.15 K, m1 = 0.0001725 | 0.00138 | –
298.15 K, m1 = 0.0001867 | – | 36.81
298.15 K, m1 = 0.0001917 | 0.00146 | –
298.15 K, m1 = 0.0002109 | 0.00154 | –
298.15 K, m1 = 0.0002302 | 0.00163 | –
298.15 K, m1 = 0.0002494 | 0.00171 | –
298.15 K, m1 = 0.0002686 | 0.00179 | –
298.15 K, m1 = 0.00028 | – | 33.44
298.15 K, m1 = 0.0002879 | 0.00188 | –
298.15 K, m1 = 0.0003071 | 0.00196 | –
298.15 K, m1 = 0.0003263 | 0.00204 | –
298.15 K, m1 = 0.0003455 | 0.00213 | –
298.15 K, m1 = 0.0003648 | 0.00221 | –
298.15 K, m1 = 0.000384 | 0.0023 | –
298.15 K, m1 = 0.0004032 | 0.00238 | –
298.15 K, m1 = 0.0004088 | – | 30.57
298.15 K, m1 = 0.0004364 | 0.00249 | –
298.15 K, m1 = 0.0004695 | 0.0026 | –
298.15 K, m1 = 0.0005026 | 0.00271 | –
298.15 K, m1 = 0.0005358 | 0.00282 | –
298.15 K, m1 = 0.0005689 | 0.00294 | –
298.15 K, m1 = 0.000602 | 0.00305 | –
298.15 K, m1 = 0.0006352 | 0.00316 | –
298.15 K, m1 = 0.0006683 | 0.00327 | –
298.15 K, m1 = 0.0007014 | 0.00338 | –
298.15 K, m1 = 0.0007346 | 0.00349 | –
298.15 K, m1 = 0.0007677 | 0.00361 | –
298.15 K, m1 = 0.0008009 | 0.00372 | –
298.15 K, m1 = 0.000834 | 0.00383 | –
298.15 K, m1 = 0.0008671 | 0.00394 | –
298.15 K, m1 = 0.0009003 | 0.00405 | –
298.15 K, m1 = 0.0009334 | 0.00417 | 29.9
298.15 K, m1 = 0.001867 | – | 29.43
298.15 K, m1 = 0.0028 | – | 29
298.15 K, m1 = 0.003733 | – | 28.91
